In US12612412B2, “Antiviral heterocyclic compounds” (Enanta Pharmaceuticals, Inc., priority 2021, dated 2026):
Where two headings read alike, the source gives them in different places.

Assays:
[1] = system: genotype A, "Long" strain RSV; test: RSV-A assay (CPE protection in Hep-2 cells, ATPlite readout); assay type: cell-based, Human respiratory syncytial virus (HRSV); conditions: RSV-A Long strain, MOI 0.1, CPE protection, read-out: Human RSV-A (“Long”) EC50
In short: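 Compound effect on RSV-induced CPE: Hep-2 monolayers, MOI 0.1, duplicate 2-fold titrations, 5-day culture in 10% FBS DMEM. Readout is ATP-based luminescence, normalised to virus-only and no-virus controls, giving EC50.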

[2] = system: HMPV clinical isolate TN/1501/A1; test: HMPV antiviral assay Method-B (clinical isolate TN/1501/A1 in LLC-MK2 cells, ATP-Lite readout); assay type: cell-based, Human metapneumovirus (HMPV); conditions: hMPV WT1501 (clinical isolate TN/1501/A1), 6 days
In short: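 EC50 derived by four-parameter logistic fit of percent cell health, measured by ATP-Lite luminescence and normalised to virus-only and uninfected-cell controls. Compounds run in duplicate from 10 μM top, 3-fold, 10 points. Infection: LLC-MK2 cells, MOI 0.014, 2 μg/mL final TPCK-trypsin, serum-free, 6 days at 37° C.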

[3] = human respiratory syncytial virus
[4] = human metapneumovirus, LLC-MK2, 144 h

COc1cc(C(=O)NC[C@](O)(c2cc3c(c(-c4cccc(OC(F)F)c4)n2)OC[C@]3(C)C(N)=O)C(F)(F)F)cc2cn(C3CC3)nc12 [Example 918]
EC50 [1, 3]: < 200 nM | EC50 [2, 4]: > 500 nM

COc1cc(C(=O)NC[C@@](O)(c2cc3c(c(-c4ccc(OC(F)F)c(F)c4)n2)OC[C@]3(C)C(N)=O)C(F)(F)F)cc2cn(C3CC3)nc12 [Example 919]
EC50 [1, 3]: > 200 nM | EC50 [2, 4]: > 500 nM

COc1cc(C(=O)NC[C@](O)(c2cc3c(c(-c4ccc(OC(F)F)c(F)c4)n2)OC[C@]3(C)C(N)=O)C(F)(F)F)cc2cn(C3CC3)nc12 [Example 920]
EC50 [1, 3]: < 200 nM | EC50 [2, 4]: < 500 nM

COc1cc(C(=O)NC[C@@](O)(c2cc3c(c(-c4cccc(Cl)c4F)n2)OC[C@]3(C)C(N)=O)C(F)(F)F)cc2cn(C3CC3)nc12 [Example 921]
EC50 [1, 3]: > 200 nM | EC50 [2, 4]: > 500 nM

COc1cc(C(=O)NC[C@](O)(c2cc3c(c(-c4cccc(Cl)c4F)n2)OC[C@]3(C)C(N)=O)C(F)(F)F)cc2cn(C3CC3)nc12 [Example 922]
EC50 [1, 3]: < 200 nM | EC50 [2, 4]: < 500 nM

COc1ccc(-c2nc([C@](O)(CNC(=O)c3cc(OC)c4nn(C5CC5)cc4c3)C(F)(F)F)cc3c2OC[C@]3(C)C(N)=O)cc1 [Example 923]
EC50 [1, 3]: > 200 nM | EC50 [2, 4]: > 500 nM

COc1ccc(-c2nc([C@@](O)(CNC(=O)c3cc(OC)c4nn(C5CC5)cc4c3)C(F)(F)F)cc3c2OC[C@]3(C)C(N)=O)cc1 [Example 924]
EC50 [1, 3]: < 200 nM | EC50 [2, 4]: > 500 nM

COc1cc(C(=O)NC[C@@](O)(c2cc3c(c(-c4ccc(OC(F)F)cc4)n2)OC[C@]3(C)C(N)=O)C(F)(F)F)cc2cn(C3CC3)nc12 [Example 925]
EC50 [1, 3]: < 200 nM | EC50 [2, 4]: > 500 nM

COc1cc(C(=O)NC[C@](O)(c2cc3c(c(-c4ccc(OC(F)F)cc4)n2)OC[C@]3(C)C(N)=O)C(F)(F)F)cc2cn(C3CC3)nc12 [Example 926]
EC50 [1, 3]: < 200 nM | EC50 [2, 4]: > 500 nM

COc1cc(C(=O)NCC(O)(c2cc3c(c(-c4ccc(OC(F)(F)F)c(F)c4)n2)OC[C@]3(C)C(N)=O)C(F)(F)F)cc2cn(C3CC3)nc12 (some centres unmarked) [Example 927]
EC50 [1, 3]: < 200 nM | EC50 [2, 4]: > 500 nM

COc1cc(C(=O)NC[C@](O)(c2cc3c(c(-c4cccc5c4OC(F)(F)O5)n2)OC[C@]3(C)C(N)=O)C(F)(F)F)cc2cn(C3CC3)nc12 [Example 928]
EC50 [1, 3]: < 200 nM | EC50 [2, 4]: > 500 nM

COc1cc(C(=O)NC[C@](O)(c2cc3c(c(-c4ccc(Cl)c(F)c4F)n2)OC[C@]3(C)C(N)=O)C(F)(F)F)cc2cn(C3CC3)nc12 [Example 929]
EC50 [1, 3]: < 200 nM | EC50 [2, 4]: < 500 nM

COc1cc(C(=O)NC[C@](O)(c2cc3c(c(-c4ccc(F)c(Cl)c4F)n2)OC[C@]3(C)C(N)=O)C(F)(F)F)cc2cn(C3CC3)nc12 [Example 930]
EC50 [1, 3]: < 200 nM | EC50 [2, 4]: < 500 nM

COc1cc(C(=O)NCC(O)(c2cc3c(c(-c4cc(F)c(F)c(Cl)c4)n2)OC[C@]3(C)C(N)=O)C(F)(F)F)cc2cn(C3CC3)nc12 (some centres unmarked) [Example 931]
EC50 [1, 3]: < 200 nM | EC50 [2, 4]: < 500 nM

COc1cc(C(=O)NC[C@](O)(c2cc3c(c(-c4cc(F)c(Cl)cc4F)n2)OC[C@]3(C)C(N)=O)C(F)(F)F)cc2cn(C3CC3)nc12 [Example 932]
EC50 [1, 3]: < 200 nM | EC50 [2, 4]: < 500 nM

COc1ccc(-c2nc([C@@](O)(CNC(=O)c3cc(OC)c4nn(C5CC5)cc4c3)C(F)(F)F)cc3c2OC[C@]3(C)C(N)=O)cc1Cl [Example 933]
EC50 [1, 3]: < 200 nM | EC50 [2, 4]: > 500 nM

COc1cc(-c2nc([C@@](O)(CNC(=O)c3cc(OC)c4nn(C5CC5)cc4c3)C(F)(F)F)cc3c2OC[C@]3(C)C(N)=O)ccc1Cl [Example 934]
EC50 [1, 3]: < 200 nM | EC50 [2, 4]: > 500 nM

COc1cc(C(=O)NC[C@](O)(c2cc3c(c(-c4ccc(Cl)c(Cl)c4)n2)OC[C@]3(C)C(N)=O)C(F)(F)F)cc2cn(C3CC3)nc12 [Example 935]
EC50 [1, 3]: < 200 nM | EC50 [2, 4]: > 500 nM

COc1cc(C(=O)NC[C@](O)(c2cc3c(c(-c4csc5c(F)cccc45)n2)OC[C@]3(C)C(N)=O)C(F)(F)F)cc2cn(C3CC3)nc12 [Example 936]
EC50 [1, 3]: < 200 nM | EC50 [2, 4]: < 500 nM

COc1cc(C(=O)NC[C@](O)(c2cc3c(c(-c4csc5c(Cl)cccc45)n2)OC[C@]3(C)C(N)=O)C(F)(F)F)cc2cn(C3CC3)nc12 [Example 937]
EC50 [1, 3]: > 200 nM | EC50 [2, 4]: > 500 nM

COc1cc(C(=O)NC[C@](O)(c2cc3c(c(-c4ccc5nn(C(F)F)cc5c4)n2)OC[C@]3(C)C(N)=O)C(F)(F)F)cc2cn(C3CC3)nc12 [Example 938]
EC50 [1, 3]: > 200 nM | EC50 [2, 4]: > 500 nM

COc1cc(C(=O)NC[C@](O)(c2cc3c(c(-c4ccc5c(ccn5C(F)F)c4)n2)OC[C@]3(C)C(N)=O)C(F)(F)F)cc2cn(C3CC3)nc12 [Example 939]
EC50 [1, 3]: < 200 nM | EC50 [2, 4]: > 500 nM

COc1cc(C(=O)NCC(O)(c2cc3c(c(-c4ccc5ccn(C(F)F)c5c4)n2)OCC3(C)C(N)=O)C(F)(F)F)cc2cn(C3CC3)nc12 (centres unmarked) [Example 940]
EC50 [1]: < 200 nM | EC50 [2]: > 500 nM

COc1cc(C(=O)NC[C@](O)(c2cc3c(c(-c4ccc5cn(C(F)F)nc5c4)n2)OC[C@]3(C)C(N)=O)C(F)(F)F)cc2cn(C3CC3)nc12 [Example 941]
EC50 [1, 3]: > 200 nM | EC50 [2, 4]: > 500 nM

COc1cc(-c2nc([C@@](O)(CNC(=O)c3cc(OC)c4nn(C5CC5)cc4c3)C(F)(F)F)cc3c2OC[C@]3(C)C(N)=O)cc2cn(C(F)F)nc12 [Example 942]
EC50 [1, 3]: > 200 nM | EC50 [2, 4]: > 500 nM

COc1cc(C(=O)NC[C@](O)(c2cc3c(c(-c4csc5ccccc45)n2)OC[C@]3(C)C(N)=O)C(F)(F)F)cc2cn(C3CC3)nc12 [Example 943]
EC50 [1, 3]: < 200 nM | EC50 [2, 4]: > 500 nM

COc1cc(C(=O)NC[C@](O)(c2cc3c(c(-c4csc5ccc(F)cc45)n2)OC[C@]3(C)C(N)=O)C(F)(F)F)cc2cn(C3CC3)nc12 [Example 944]
EC50 [1, 3]: < 200 nM | EC50 [2, 4]: > 500 nM

COc1cc(C(=O)NC[C@](O)(c2cc3c(c(-c4csc(C(F)F)c4)n2)OC[C@]3(C)C(N)=O)C(F)(F)F)cc2cn(C3CC3)nc12 [Example 945]
EC50 [1, 3]: < 200 nM | EC50 [2, 4]: > 500 nM

COc1cc(C(=O)NC[C@](O)(c2cc3c(c(-c4csc(C(F)(F)F)c4)n2)OC[C@]3(C)C(N)=O)C(F)(F)F)cc2cn(C3CC3)nc12 [Example 946]
EC50 [1, 3]: < 200 nM | EC50 [2, 4]: < 500 nM

COc1cc(C(=O)NC[C@](O)(c2cc3c(c(-c4cc(C(F)F)cs4)n2)OC[C@]3(C)C(N)=O)C(F)(F)F)cc2cn(C3CC3)nc12 [Example 947]
EC50 [1, 3]: < 200 nM | EC50 [2, 4]: > 500 nM

COc1cc(C(=O)NC[C@](O)(c2cc3c(c(-c4ccc(C(F)F)s4)n2)OC[C@]3(C)C(N)=O)C(F)(F)F)cc2cn(C3CC3)nc12 [Example 948]
EC50 [1, 3]: < 200 nM | EC50 [2, 4]: > 500 nM

COc1cc(C(=O)NC[C@](O)(c2cc3c(c(-c4cnc(C(F)(F)F)s4)n2)OC[C@]3(C)C(N)=O)C(F)(F)F)cc2cn(C3CC3)nc12 [Example 950]
EC50 [1, 3]: < 200 nM | EC50 [2, 4]: > 500 nM

COc1cc(C(=O)NC[C@](O)(c2cc3c(c(-c4csc(C(F)(F)F)n4)n2)OC[C@]3(C)C(N)=O)C(F)(F)F)cc2cn(C3CC3)nc12 [Example 951]
EC50 [1, 3]: < 200 nM | EC50 [2, 4]: < 500 nM

COc1cc(C(=O)NC[C@](O)(c2cc3c(c(-c4cc(Cl)c(F)cc4F)n2)OC[C@]3(C)C(N)=O)C(F)(F)F)cc2cn(C3CC3)nc12 [Example 952]
EC50 [1, 3]: < 200 nM | EC50 [2, 4]: < 500 nM
